# Laboratory results as given in patent US11965219B2, “Process and apparatus for reduction in microbial growth in solutions of sugars extracted from waste materials” (UNIVERSITY OF LEEDS, priority 2018, dated 2024).
# Tested on: microbial growth in solutions of sugar
# Assay: Microbial contamination control procedure: dissolved oxygen and pH monitoring of solutions of sugars after adding a sterilisation agent
# Description: The process described is based upon the Fiberight industrial scale process, modified for a 1 litre reaction vessel. The amount of organic substrate used in the process is dependent on the required total solids (TS) content of the process. Typically, TS will be between 5-25%. TS is calculated using the required reaction mass and the solids content of the organic substrate, which is typically between 10-70%. (For a reaction mass of 1 kg, with a required TS of 8% (w/w), using organic substrate with a solids content of 32% (w/w), the amount of organic substrate needed for the process is 250 g). The organic substrate is sterilised in an autoclave at 125° C. for 1 hour immediately prior to use.
# The reaction vessel is sterilised prior to use by filling with […] and stirring for 1 hour. The ethanol is then drained and the heating jacket set to 50° C. prior to addition of the reaction components (water, organic substrate, and enzyme).
# The organic substrate is added to a preheated reaction vessel (50° C.) in one portion followed by sterilised water (the mass of water required=total reaction mass−mass of organic substrate) and stirred at between 200-600 RPM, depending on TS (higher TS requires a higher RPM to ensure thorough mixing). […] DO readings are taken throughout the process and are typically between 3-8 mg/L if no contamination is present. […] Typically this stops after T=3 hours and maintains linear readings. If contamination occurs the DO reading can drop to 0 mg/L, which typically happens between T=5-8 hours. […]
# Several sterilisation agents have been tested to determine their effectiveness in controlling microbial growth in solutions of sugar. The sterilisation agents were either introduced at T=0 or at the point that microbial growth is observed, which can be measured by the DO sensor. Typically, contamination can be said to occur when the DO reading starts to drop exponentially, eventually reaching 0 mg/L if no sterilisation agent is added. In these tests, software was used to monitor the DO readings and trigger the addition of an antimicrobial. […]
structure (smiles),measurement,setting,value
[O][Cl+][O-] [chlorine dioxide],dissolved oxygen and pH levels / microbial growth,"0.05 wt % added at T=5 hrs 45 mins, T=50 hrs 30 mins and T=73 hrs 30 mins, FIG. 7","stabilise dissolved oxygen and pH levels, thereby preventing further microbial growth"
same,dissolved oxygen and pH levels / microbial growth,"0.35 wt % added at T=8 hrs 45 mins in a single aliquot, FIG. 6","stabilise dissolved oxygen and pH levels, thereby preventing further microbial growth"
same,pH drop (evidence of lactic acid production),"added in response to the drop in dissolved oxygen, FIGS. 6 and 7",prevented
